Read-outs that look alike come from different tables or passages of the source.
Conditions: rats
Experimental: Chronic liver disease was established by exposing the animals of the 3 experimental groups to weekly intra-gastric administration of CCl4. A starting dose of 80 μl was used and increased weekly, based on the weight of the animals. Nothing was administered to the control group. All the animals were weighed on day one and the experimental groups started with their 80 μl CCl4. After three days the animals were again weighed to determine the dose for the second week. That was the procedure for the administration of the CC4 l during the entire experiment. On day three of week five, the scanning of group 1 started. Anaesthesia in each case was induced with an intraperitoneal injection of sodium pentobarbitone 6% solution (Sagatal, Kryon Laboratories Pty Ltd., Benrose, Gauteng, S. A). […] After the completion of the acquisition, the rats were terminated by an intravenous overdose of sodium pentobarbitone. The livers were taken out, stored in a 10% formalin solution until the next day and then processed and stained with Haematoxylin and Eosin, Reticulin and Cyrus red.
Liver sections of the rats were stained with H&E, Masson Trichrome and Reticulin stains. The amount of necrosis and fibrosis were interpreted by an experienced hepatopathologist and scored according to a classification system whereby 1 was mild necrosis or fibrosis and 4 severe.

[1] = weekly intra-gastric CCl4, after 5 weeks
[2] = weekly intra-gastric CCl4, after 7 weeks
[3] = weekly intra-gastric CCl4, after 9 weeks

## ClC(Cl)(Cl)Cl [CCl4]
[1]
  average score for fibrosis (1 mild, 4 severe): 1.9
  average score for necrosis (1 mild, 4 severe): 1.9
[2]
  average score for fibrosis (1 mild, 4 severe): 1.9
  average score for necrosis (1 mild, 4 severe): 1.7
[3]
  average score for fibrosis (1 mild, 4 severe): 2.1
  average score for necrosis (1 mild, 4 severe): 1.4

From patent US20040023299A1, “Diagnosis of liver disease” (priority 2000, published 2004)
